As usually defined, the IC50 is the concentration that gives 50% inhibition.

Data on 19 compounds can be found in patent publication US9670204B2, “Compounds and pharmaceutical compositions thereof for the treatment of inflammatory disorders” (Galapagos NV, priority 2013, dated 2017).

Assay [1] has as its target T1, hENPP2 (UniProtKB/SwissProt Q13822) (Homo sapiens (Human), UniProt Q13822). As to the kind of experiment: hENPP2 biochemical assay, LPC as substrate. To be noted: LPC (palmitoyl 16:0) as substrate. The method, boiled down: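 Human ENPP2 in 50 mM Tris-HCl pH 8.5, 500 mM NaCl, 5 mM KCl, 10 mM CaCl2, 0.1% fatty-acid-free BSA, reacted 30 min at 37 °C with LPC 16:0 (150 µM solution added 1:1). Released choline measured via choline oxidase/peroxidase/TOOS/4-aminoantipyrine quinoneimine dye at 555 nm; IC50 reported.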

Assay [2] deals with T1, hENPP2. The experiment in a line: fluorescent hENPP2 biochemical assay, FS-3 as substrate. To be noted: read-out: FS3-IC50. The method, boiled down: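 IC50 values come from fluorescence gained as FS-3 is hydrolysed (ex 485, em 520 nm). The reaction, started by adding 0.75 μM FS-3 solution, runs 30 min at 30° C after a 30 min room-temperature preincubation of compound with enzyme. Buffer: Tris-HCl pH 8.0 with NaCl, KCl, MgCl2, CaCl2 and 0.1% BSA.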

For another assay, the system named is LPA 18:2 in rat plasma. The experiment in a line: Rat whole blood (plasma) LPA assay. It is filed as biochemical. To be noted: 2 h at 37 C, LPA 18:2 by LC-MS/MS. How it is done:
Whole blood is collected from rats or mouse by exsanguinations on sodium heparin tube, then after centrifugation at 3000 rpm for 15 min at 4° C., plasma is stored at −80° C. Compounds are diluted in DMSO in concentration dependent manner then 0.5 μL are dispensed into 96-well plate placed in ice. Plasma is defrosted on ice then 49.5 μL of plasma are added into the well containing 0.5 μL of compound (1% DMSO final). Plates are covered with a lid in polypropylene and incubated at +37° C., 5% CO2, for 2 h under gentle shaking (except controls which are stored at −20° C.).
At the end of the incubation, controls are defrosted in ice and transferred in the incubated plates for LC-MS/MS analysis with a non GLP-validated method. For the analysis, plasma proteins from a 10 μL incubated plates are precipitated with an excess of methanol containing the internal standard, LPA 17:0. After centrifugation, the corresponding supernatant is injected on a C18 column. Analytes are eluted out of the column under isocratic conditions. An API5500 QTRAP mass spectrometer (ABSciex™) is used for the detection of LPA 18:2. No calibration curve is prepared for LPA 18:2, however relative quantities are evaluated based on the peak area.

`CCc1nc2ccc(C3=CCN(S(C)(=O)=O)CC3)cn2c1N(C)c1nccc(-c2ccc(F)cc2)n1` [Compound 187, 2-ethyl-N-(4-(4-fluorophenyl)pyrimidin-2-yl)-N-methyl-6-(1-(methylsulfonyl)-1,2,3,6-tetrahydropyridin-4-yl)imidazo[1,2-a]pyridin-3-amine]: the IC50 on hENPP2 [1] was above 1000 nM; on hENPP2 [2], 0.01 to 100 nM; in the assay on LPA 18:2 in rat plasma, 100 to 500 nM.

Regarding `CCc1nc2ccc(N3CCS(=O)(=O)CC3)cn2c1N(C)c1nc(-c2ccc(F)cc2)cs1` [Compound 182, 4-(2-ethyl-3-((4-(4-fluorophenyl)thiazol-2-yl)(methyl)amino)imidazo[1,2-a]pyridin-6-yl)-thiomorpholine 1,1-dioxide], the IC50 is above 1000 nM against hENPP2 [1], 0.01 to 100 nM at hENPP2 [2] and above 1000 nM in the assay on LPA 18:2 in rat plasma.

For `CCc1nc2ccc(C3CCN(S(C)(=O)=O)CC3)cn2c1N(C)c1nc(-c2ccc(F)cc2C#N)cs1` [Compound 96, 2-(2-((2-ethyl-6-(1-(methylsulfonyl)piperidin-4-yl)imidazo [1,2-a]pyridin-3-yl)(methyl)amino)thiazol-4-yl)-5-fluorobenzonitrile], the half-maximal inhibitory concentration (IC50) lay within 100 to 500 nM on hENPP2 [1], 0.01 to 100 nM at hENPP2 [2] and 0.01 to 100 nM with LPA 18:2 in rat plasma.

As to `CCc1nc2ccc(C3=CCN(S(C)(=O)=O)CC3)cn2c1N(C)c1nc(-c2ccc(F)cc2)cs1` [Compound 66, N-(2-ethyl-6-(1-(methylsulfonyl)-1,2,3,6-tetrahydropyridin-4-yl)imidazo[1,2-a]pyridin-3-yl)-4-(4-fluorophenyl)-N-methylthiazol-2-amine], the IC50 against hENPP2 [1] was above 1000 nM; on hENPP2 [2] it was 0.01 to 100 nM; in the assay with LPA 18:2 in rat plasma it was above 1000 nM.

With `CCc1nc2ccc(N3CCN(C(=O)C4CCCN4)CC3)cn2c1N(C)c1nc(-c2ccc(F)cc2)cs1` (stereo not drawn) [Compound 46, (4-(2-ethyl-3-((4-(4-fluorophenyl)thiazol-2-yl)(methyl)amino)imidazo[1,2-a]pyridin-6-yl)piperazin-1-yl)(pyrrolidin-2-yl)methanone], the IC50 on hENPP2 [1] is above 1000 nM; at hENPP2 [2], 0.01 to 100 nM; in the assay on LPA 18:2 in rat plasma, above 1000 nM.

Regarding `CCc1nc2ccc(N3CCN(S(C)(=O)=O)CC3)cn2c1N(C)c1nc(-c2ccc(F)cc2)cs1` [Compound 54, N-(2-ethyl-6-(4-(methylsulfonyl)piperazin-1-yl)imidazo [1,2-a]pyridin-3-yl)-4-(4-fluorophenyl)-N-methylthiazol-2-amine], the IC50 was 500 to 1000 nM against hENPP2 [1], 0.01 to 100 nM on hENPP2 [2] and above 1000 nM in the assay with LPA 18:2 in rat plasma.

Consider `CCc1nc2ccc(C3CCN(S(C)(=O)=O)CC3)cn2c1N(C)c1nc(-c2ccc(F)cc2C)cs1` [Compound 98, N-(2-ethyl-6-(1-(methylsulfonyl)piperidin-4-yl)imidazo[1,2-a]pyridin-3-yl)-4-(4-fluoro-2-methylphenyl)-N-methylthiazol-2-amine], for which the figures for the IC50 against hENPP2 [1], at hENPP2 [2] and with LPA 18:2 in rat plasma were 500 to 1000 nM, 0.01 to 100 nM and 100 to 500 nM, respectively.

Regarding `CCc1nc2ccc(C3CCN(S(=O)(=O)CCCO)CC3)cn2c1N(C)c1nc(-c2ccc(F)cc2)cs1` [Compound 94, 3-[4-(2-Ethyl-3-{[4-(4-fluoro-phenyl)-thiazol-2-yl]-methyl-amino}-imidazo[1,2-a]pyridin-6-yl)-piperidine-1-sulfonyl]-propan-1-ol], the IC50 was 500 to 1000 nM against hENPP2 [1], 0.01 to 100 nM at hENPP2 [2] and 500 to 1000 nM with LPA 18:2 in rat plasma.

Regarding `CN(C)C(=O)CN1CCC(c2ccc3nc(CCC#N)c(N(C)c4nc(-c5ccc(F)cc5)cs4)n3c2)CC1` [Compound 174, 2-(4-(2-(2-cyanoethyl)-3-((4-(4-fluorophenyl)thiazol-2-yl)(methyl)amino)imidazo[1,2-a]pyridin-6-yl)piperidin-1-yl)-N,N-dimethylacetamide], the IC50 against hENPP2 [1], at hENPP2 [2] and in the assay with LPA 18:2 in rat plasma was 0.01 to 100 nM in each case.

Regarding `CCc1nc2ccc(C3CCN(CC(=O)N(C)C)CC3)cn2c1N(C)c1nc(-c2ccc(F)cc2C#N)cs1` [Compound 171, 2-(4-(3-((4-(2-cyano-4-fluorophenyl)thiazol-2-yl)(methyl)amino)-2-ethylimidazo[1,2-a]pyridin-6-yl)piperidin-1-yl)-N,N-dimethylacetamide], the figures for the half-inhibitory concentration (IC50) against hENPP2 [1], on hENPP2 [2] and in the assay on LPA 18:2 in rat plasma were 0.01 to 100 nM, 0.01 to 100 nM and 100 to 500 nM, respectively.

For `CCc1nc2ccc(N3CCN(C(=O)[C@H](C)O)CC3)cn2c1N(C)c1nc(-c2ccc(F)cc2)cs1` [Compound 203, (S)-1-(4-(2-ethyl-3-((4-(4-fluorophenyl)thiazol-2-yl)(methyl)amino)imidazo[1,2-a]pyridin-6-yl)piperazin-1-yl)-2-hydroxypropan-1-one], the half-maximal inhibitory concentration (IC50) was above 1000 nM at hENPP2 [1], 0.01 to 100 nM on hENPP2 [2] and above 1000 nM in the assay on LPA 18:2 in rat plasma.

For the compound `CCc1nc2ccc(N3CCN(CC(=O)N4CC(O)C4)CC3)cn2c1N(C)c1nc(-c2ccc(F)cc2C#N)cs1` [Compound 166, 2-(2-((2-ethyl-6-(4-(2-(3-hydroxyazetidin-1-yl)-2-oxoethyl)piperazin-1-yl)imidazo[1,2-a]pyridin-3-yl)(methyl)amino)thiazol-4-yl)-5-fluorobenzonitrile], the IC50 against hENPP2 [1] fell in the range of 0.01 to 100 nM; at hENPP2 [2], 0.01 to 100 nM; in the assay with LPA 18:2 in rat plasma, 500 to 1000 nM.

With `CCc1nc2ccc(N3CCN(Cc4ncc[nH]4)CC3)cn2c1N(C)c1nc(-c2ccc(F)cc2)cs1` [Compound 226, N-(6-(4-((1H-imidazol-2-yl)methyl)piperazin-1-yl)-2-ethylimidazo[1,2-a]pyridin-3-yl)-4-(4-fluorophenyl)-N-methylthiazol-2-amine], the IC50 was above 1000 nM against hENPP2 [1], 0.01 to 100 nM at hENPP2 [2] and above 1000 nM in the assay on LPA 18:2 in rat plasma.

`CCc1nc2ccc(N3CCN(CC(=O)N(C)C)CC3)cn2c1N(C)c1nc(-c2ccc(F)cc2)c(CO)s1` [Compound 155, 2-(4-(2-ethyl-3-((4-(4-fluorophenyl)-5-(hydroxymethyl)thiazol-2-yl)(methyl)amino)imidazo[1,2-a]pyridin-6-yl)piperazin-1-yl)-N,N-dimethylacetamide]: the results for the concentration for half-maximal inhibition (IC50) at hENPP2 [1], at hENPP2 [2] and in the assay on LPA 18:2 in rat plasma were 500 to 1000 nM, 0.01 to 100 nM and 100 to 500 nM, respectively.

`CCc1nc2ccc(C3CCN(S(=O)(=O)CCCN(C)C)CC3)cn2c1N(C)c1nc(-c2ccc(F)cc2)cs1` [Compound 87, N-(6-(1-(3-(dimethylamino)propyl-sulfonyl)piperidin-4-yl)-2-ethylimidazo[1,2-a]pyridin-3-yl)-4-(4-fluorophenyl)-N-methylthiazol-2-amine]: the IC50 is 100 to 500 nM against hENPP2 [1], 0.01 to 100 nM on hENPP2 [2] and 100 to 500 nM in the assay on LPA 18:2 in rat plasma.

Turning to `CCc1nc2c(C)cc(N3CCN(CC(=O)N4CC[C@@H](O)C4)CC3)cn2c1N(C)c1nc(-c2ccc(F)cc2)c(C#N)s1` [Compound 4, (R)-2-((2-ethyl-6-(4-(2-(3-hydroxypyrrolidin-1-yl)-2-oxoethyl)piperazin-1-yl)-8-methylimidazo[1,2-a]pyridin-3-yl)(methyl)amino)-4-(4-fluorophenyl)thiazole-5-carbonitrile], the results for the IC50 against hENPP2 [1], on hENPP2 [2] and in the assay with LPA 18:2 in rat plasma were 100 to 500 nM, 0.01 to 100 nM and 100 to 500 nM, respectively.

Consider `CCc1nc2ccc(C3CCN(S(=O)(=O)CCCN4CCOCC4)CC3)cn2c1N(C)c1nc(-c2ccc(F)cc2)cs1` [Compound 88, N-(2-ethyl-6-(1-(3-morpholinopropyl-sulfonyl)piperidin-4-yl)imidazo[1,2-a]pyridin-3-yl)-4-(4-fluorophenyl)-N-methylthiazol-2-amine], for which the results for the IC50 against hENPP2 [1], on hENPP2 [2] and with LPA 18:2 in rat plasma were 100 to 500 nM, 0.01 to 100 nM and 100 to 500 nM, respectively.

As to `CCc1nc2ccc(N3CCS(=O)(=O)CC3)cn2c1N(C)c1nc(-c2ccc(Cl)cc2)cs1` [Compound 213, 4-(2-ethyl-3-((4-(4-chlorophenyl)thiazol-2-yl)(methyl)amino)imidazo[1,2-a]pyridin-6-yl)-thiomorpholin-1,1-dioxide], the IC50 against hENPP2 [1] is above 1000 nM; at hENPP2 [2], 0.01 to 100 nM; in the assay with LPA 18:2 in rat plasma, above 1000 nM.

In the case of `CCc1nc2ccc(C3CCN(CC(=O)N4CC(CO)C4)CC3)cn2c1N(C)c1nc(-c2ccc(F)cc2)cs1` [Compound 113, 2-(4-(2-ethyl-3-((4-(4-fluorophenyl)thiazol-2-yl)(methyl)amino)imidazo[1,2-a]pyridin-6-yl)piperidin-1-yl)-1-(3-(hydroxymethyl)azetidin-1-yl) ethanone], the half-maximal inhibitory concentration (IC50) against hENPP2 [1] fell in the range of 100 to 500 nM; on hENPP2 [2] it was 0.01 to 100 nM; in the assay on LPA 18:2 in rat plasma, 100 to 500 nM.
